Data: US20230313318A1, “MICR[…] METHOD OF USE THEREOF” (priority 2022, published 2023)
Values joined by “and” are separate entries in the source; they are usually repeats but may differ in a detail not shown here. Identical values can stand only once.

Tested on: D. immitis JYD-34 (macrocyclic lactone resistant isolate)
Set-up: species or system Dirofilaria immitis
Settings: in vivo

## Milbemycin oxime [MBO]
  JYD-34 heartworms among recovered worms, all seven dogs in Group 4: 100%
  Number of JYD-34 Worms: 18 and 15 and 21 and 22 and 14 and 20
po
  Percentage of JYD-34 Worms: 100%
